Test: log P by HPLC on a reversed-phase column (C18), EEC Directive 79/831 Annex V.A8
Assay type: physicochemical
Settings: HCOOH
Experimental: The stated log P values were determined in accordance with EEC Directive 79/831 Annex V.A8 by HPLC (High Performance Liquid Chromatography) using a reversed-phase column (C18).

SMILES | log P (HCOOH)
Cc1cc(-n2nc(C(F)(F)F)c(-c3cc(Cl)cc(Cl)c3)c2N)ccc1C(=O)NCc1cccc(F)c1 [I-A-Q2-214] | I-A-Q2-214: log P (HCOOH): 4.45
Nc1c(-c2cc(Cl)cc(Cl)c2)c(C(F)(F)F)nn1-c1ccc(C(=O)NCc2ccccn2)cn1 [I-A-Q2-105] | I-A-Q2-105: log P (HCOOH): 3.61
CC(NC(=O)c1ccc(-n2nc(-c3ccccc3)c(-c3ccc(Cl)cc3)c2N)cc1)C(F)(F)F (stereo not shown) [I-A-Q2-075] | I-A-Q2-075: log P (HCOOH): 3.94
Nc1c(-c2ccc(Br)cc2)c(C(F)(F)F)nn1-c1ccc(C(=O)NCc2ccccn2)cc1 [I-A-Q2-191] | I-A-Q2-191: log P (HCOOH): 2.57
Cc1cc(-n2nc(C(F)(F)F)c(-c3ccccc3Cl)c2N)ccc1C(=O)NCc1ccccn1 [I-A-Q2-351] | I-A-Q2-351: log P (HCOOH): 2.27
CC(NC(=O)c1cnc(-n2nc(C(F)(F)F)c(-c3cc(Cl)cc(Cl)c3)c2N)nc1C(F)(F)F)c1ccccn1 (stereo not shown) [I-A-Q2-021] | I-A-Q2-021: log P (HCOOH): 3.48
CCNC(=O)c1ccc(-n2nc(C(F)(F)F)c(-c3cc(Cl)cc(Cl)c3)c2N)cc1 [I-A-Q2-142] | I-A-Q2-142: log P (HCOOH): 3.77
Cc1cc(-n2nc(C)c(-c3cccc(Cl)c3)c2N)ccc1C(=O)NCc1ccccn1 [I-A-Q2-371] | I-A-Q2-371: log P (HCOOH): 1.88
CNC(=O)c1ccc(-n2nc(-c3ccccc3)c(-c3ccc(Cl)cc3)c2N)cc1 [I-A-Q2-078] | I-A-Q2-078: log P (HCOOH): 2.94
CSc1c(-c2cc(Cl)cc(Cl)c2)c(C(F)(F)F)nn1-c1ccc(C(=O)NCC(F)(F)C(F)F)c(C)c1 [I-A-Q2-282] | I-A-Q2-282: log P (HCOOH): 5.25
CC(NC(=O)c1ccc(-n2nc(C(F)(F)F)c(-c3ccc(Cl)cc3)c2N)cc1)c1ccccn1 (stereo not shown) [I-A-Q2-165] | I-A-Q2-165: log P (HCOOH): 2.72
Cc1cc(-n2nc(C(F)(F)F)c(-c3cc(Cl)cc(Cl)c3)c2N)ccc1C(=O)N(C)C(C)c1ccccn1 (stereo not shown) [I-A-Q2-210] | I-A-Q2-210: log P (HCOOH): 4.28
CC(NC(=O)c1ccc(-n2nc(C(F)(F)F)c(-c3cccc(Cl)c3)c2N)cc1)c1ccccc1 (stereo not shown) [I-A-Q2-089] | I-A-Q2-089: log P (HCOOH): 3.89
Cc1cc(-n2nc(C(F)(F)F)c(-c3cc(Cl)cc(Cl)c3)c2N)ccc1C(=O)NCCc1ccccc1 [I-A-Q2-050] | I-A-Q2-050: log P (HCOOH): 4.64
Cc1cc(-n2nc(C)c(-c3cc(F)ccc3F)c2N)ccc1C(=O)NCc1ccccn1 [I-A-Q2-372] | I-A-Q2-372: log P (HCOOH): 1.61
Cc1cc(-n2nc(C(F)(F)F)c(-c3ccc(Cl)c(Cl)c3)c2N)ccc1C(=O)NCc1ccccn1 [I-A-Q2-347] | I-A-Q2-347: log P (HCOOH): 3.11
Cc1nc(CNC(=O)c2ccc(-n3nc(C(F)(F)F)c(-c4cc(Cl)cc(Cl)c4)c3N)cc2C)cs1 [I-A-Q2-041] | I-A-Q2-041: log P (HCOOH): 3.94
Nc1c(-c2cc(Cl)cc(Cl)c2)c(C(F)(F)F)nn1-c1ccc(C(=O)NCc2ncccn2)cc1 [I-A-Q2-137] | I-A-Q2-137: log P (HCOOH): 3.40

Same assay, conditions: HCOOH; Table 4, compounds of formula I-A-Q4

SMILES | log P (HCOOH)
Nc1c(-c2ccc(I)cc2)c(C(F)(F)F)nn1-c1ccc(Cl)cn1 [I-A-Q4-051] | I-A-Q4-051: log P (HCOOH): 5.29
Cc1nn(-c2ccc(Cl)cn2)c(N)c1-c1cc(Cl)ccc1Cl [I-A-Q4-030] | I-A-Q4-030 :log P (HCOOH): 4.57
CN(C)c1cc(-n2nc(C(F)(F)F)c(-c3cc(Cl)cc(Cl)c3)c2N)ccc1C(=O)O [I-A-Q4-121] | I-A-Q4-121: log P (HCOOH): 3.07
Nc1c(-c2ccc(Br)cc2)c(C(F)(F)F)nn1-c1ccc(Cl)cn1 [I-A-Q4-042] | I-A-Q4-042: log P (HCOOH): 5.22
FC(F)(F)c1nn(-c2ccc(I)cc2)c(Br)c1-c1cc(Cl)cc(Cl)c1 [I-A-Q4-017] | I-A-Q4-017: log P (HCOOH): 6.71

Same assay, conditions: HPLC, reversed-phase C18, mobile phase with formic acid

SMILES | log P (HCOOH)
N#Cc1cc(-n2nc(C(F)(F)F)c(-c3cc(Cl)cc(Cl)c3)c2N)ccc1-n1cc(Cl)cn1 [I-A-Q1-084] | I-A-Q1-084: log P (HCOOH): 4.70
N#Cc1cc(-n2nc(C(F)(F)F)c(-c3cc(Cl)cc(Cl)c3)c2N)ccc1-n1ccnc1 [I-A-Q1-076] | I-A-Q1-076: log P (HCOOH): 2.98

— US20110190365A1, “Insecticidal 4-phenyl-1H-pyrazoles” (Bayer Crop Science AG, priority 2008, published 2011)
